Test [1] concerns the target T1, human SLC6A19 and TMEM27 (Homo sapiens, UniProt Q695T7).
T1 construct: expressed in transfected cells
T1 sequence (Q695T7 1-634): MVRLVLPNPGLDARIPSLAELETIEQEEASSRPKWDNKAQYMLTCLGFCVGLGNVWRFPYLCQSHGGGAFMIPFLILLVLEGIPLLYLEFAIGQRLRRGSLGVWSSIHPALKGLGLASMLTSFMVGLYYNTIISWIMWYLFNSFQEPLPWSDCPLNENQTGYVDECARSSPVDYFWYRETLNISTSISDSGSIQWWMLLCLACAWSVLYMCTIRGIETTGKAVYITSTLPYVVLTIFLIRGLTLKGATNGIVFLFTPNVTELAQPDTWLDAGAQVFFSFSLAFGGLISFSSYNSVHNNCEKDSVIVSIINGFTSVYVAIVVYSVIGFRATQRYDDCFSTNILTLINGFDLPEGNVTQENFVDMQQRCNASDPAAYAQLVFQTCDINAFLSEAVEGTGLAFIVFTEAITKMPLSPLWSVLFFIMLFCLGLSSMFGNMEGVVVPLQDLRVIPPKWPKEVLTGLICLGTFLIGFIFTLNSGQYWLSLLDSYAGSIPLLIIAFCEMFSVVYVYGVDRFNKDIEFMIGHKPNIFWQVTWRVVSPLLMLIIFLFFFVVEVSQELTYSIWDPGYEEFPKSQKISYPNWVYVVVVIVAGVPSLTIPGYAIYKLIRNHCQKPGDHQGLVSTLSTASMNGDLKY
T1 sequence (Q9HBJ8 15-222 partner): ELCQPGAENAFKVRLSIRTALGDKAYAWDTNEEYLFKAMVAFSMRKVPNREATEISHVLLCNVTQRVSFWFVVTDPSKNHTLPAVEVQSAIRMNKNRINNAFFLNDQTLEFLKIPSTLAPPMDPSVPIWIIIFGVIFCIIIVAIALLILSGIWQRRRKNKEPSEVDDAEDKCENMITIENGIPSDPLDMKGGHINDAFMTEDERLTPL
The test is described as follows: Radiolabelled (3H) leucine uptake in CHO cells with doxycycline-inducible expression of human SLC6A19 and TMEM27 (Example B-1). Type of test: cell-based. The following applies: CHO cells with doxycycline-inducible expression of human SLC6A19 and TMEM27, read-out: SLC6A19_Radioligand Uptake Assay IC50. The gist of the method: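 CHO cells were induced with doxycycline for 18 h at 37 °C, washed in HBSS, then exposed to compounds for 1 h: 8-point, 3-fold dilutions in duplicate, 0.5% DMSO final. Uptake measured by scintillation counting after 2 h shaking. Activity normalized with positive control as 0% and DMSO as 100%.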

For test [2], the target named is T1, human SLC6A19 and TMEM27. In words: 13C6,15N-isoleucine uptake in CHO cells with doxycycline-inducible expression of human SLC6A19 and TMEM27, RapidFire mass spectrometry (Example B-2). The following applies: read-out: SLC6A19_RapidFire Uptake Assay IC50. Type of test: cell-based. The method in brief:
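Read-out is RapidFire mass-spec peak area of 13C6,15N-isoleucine taken up over 20 min at 37 °C, after 20 min compound pre-exposure in pH 7.2 HEPES-buffered saline. Cells: doxycycline-induced CHO co-expressing human SLC6A19 and TMEM27; compounds as duplicate 10-point 2-fold dilutions, positive control setting 0% activity.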

As for `CC(C)C(=O)NCc1cc2cc(F)c(OCc3cscn3)cc2[nH]1` [Compound 135, N-((5-fluoro-6-(thiazol-4-ylmethoxy)-1H-indol-2-yl)methyl)isobutyramide], the IC50 on human SLC6A19 and TMEM27 [1] was found to be 82 nM; on human SLC6A19 and TMEM27 [2] it was 49 nM.
Regarding `Cc1coc(COc2cc3[nH]c(CNC(=O)N4CCCC4)cc3cc2Cl)n1` [Compound 426, N-((5-chloro-6-((4-methyloxazol-2-yl)methoxy)-1H-indol-2-yl)methyl)pyrrolidine-1-carboxamide], the IC50 stood at 351 nM at human SLC6A19 and TMEM27 [1]; 217 nM at human SLC6A19 and TMEM27 [2].
Consider `Cc1cc(COc2cc3[nH]c(CNC(=O)N4CCC4)cc3cc2Cl)on1` [Compound 404, N-((5-chloro-6-((3-methylisoxazol-5-yl)methoxy)-1H-indol-2-yl)methyl)azetidine-1-carboxamide], for which the IC50 is 268 nM on human SLC6A19 and TMEM27 [1]; 147 nM at human SLC6A19 and TMEM27 [2].
The like results for `CCC(=O)NCc1cc2cc(Cl)c(OCc3cc(C)no3)cc2[nH]1` [Compound 438, N-((5-chloro-6-((3-methylisoxazol-5-yl)methoxy)-1H-indol-2-yl)methyl)propionamide] were, in that order, 70.9 nM and 26.8 nM.
The like results for `CC1(C(=O)NCc2cc3cc(Cl)c(OCc4ccc(F)nc4)cc3[nH]2)CC1` [Compound 31, N-((5-chloro-6-((6-fluoropyridin-3-yl)methoxy)-1H-indol-2-yl)methyl)-1-methylcyclopropane-1-carboxamide] were, in that order, 419 nM and 504 nM.
In the same order, the values of `O=C(NCc1cc2cc(Cl)c(OCc3cscn3)cc2[nH]1)C1CC(F)(F)C1` [Compound 495, N-((5-chloro-6-(thiazol-4-ylmethoxy)-1H-indol-2-yl)methyl)-3,3-difluorocyclobutane-1-carboxamide] are 397 nM and 240 nM.
`O=C(NCc1cc2cc(Cl)c(CCc3ccon3)cc2[nH]1)N1CCCC1` [Compound 412, N-((5-chloro-6-(2-(isoxazol-3-yl)ethyl)-1H-indol-2-yl)methyl)pyrrolidine-1-carboxamide]: the IC50 on human SLC6A19 and TMEM27 [1] is 289 nM; on human SLC6A19 and TMEM27 [2] it was 154 nM.
The like results for `CC1(C(=O)NCc2cc3cc(Cl)c(OCc4cc(C5CC5)on4)cc3[nH]2)CC1` [Compound 100, N-((5-chloro-6-((5-cyclopropylisoxazol-3-yl)methoxy)-1H-indol-2-yl)methyl)-1-methylcyclopropane-1-carboxamide] were, in that order, 201 nM and 397 nM.
The like results for `CC1(C(=O)NCc2cc3cc(Cl)c(OCCC4CC(F)(F)C4)cc3[nH]2)CC1` [Compound 393, N-((5-chloro-6-(2-(3,3-difluorocyclobutyl)ethoxy)-1H-indol-2-yl)methyl)-1-methylcyclopropane-1-carboxamide] were, in that order, 1460 nM and 781 nM.
The like results for `CC1(C(=O)NCc2cc3cc(Cl)c(OCc4ccoc4)cc3[nH]2)CC1` [Compound 64, N-((5-chloro-6-(furan-3-ylmethoxy)-1H-indol-2-yl)methyl)-1-methylcyclopropane-1-carboxamide] were, in that order, 78 nM and 24 nM.
Take `CC1(C(=O)NCc2cc3ccc(OCc4cccc(F)n4)cc3[nH]2)CC1` [Compound 33, N-((6-((6-fluoropyridin-2-yl)methoxy)-1H-indol-2-yl)methyl)-1-methylcyclopropane-1-carboxamide]: the IC50 at human SLC6A19 and TMEM27 [1] is 172 nM; at human SLC6A19 and TMEM27 [2], 221 nM.
In the same order, the values of `CC(=O)NCc1cc2cc(Cl)c(NCc3cscn3)cc2[nH]1` [Compound 229, N-((5-chloro-6-((thiazol-4-ylmethyl)amino)-1H-indol-2-yl)methyl)acetamide] are 157 nM and 204 nM.
In the same order, the values of `O=C(NCc1cc2cc(F)c(OCc3cscn3)cc2[nH]1)C1CCC1` [Compound 430, N-((5-fluoro-6-(thiazol-4-ylmethoxy)-1H-indol-2-yl)methyl)cyclobutanecarboxamide] are 137 nM and 68.6 nM.
With `CC1(C(=O)NCc2cc3cc(Cl)c(OCc4ncccc4F)cc3[nH]2)CC1` [Compound 26, N-((5-chloro-6-((3-fluoropyridin-2-yl)methoxy)-1H-indol-2-yl)methyl)-1-methylcyclopropane-1-carboxamide], the 50% inhibitory concentration (IC50) on human SLC6A19 and TMEM27 [1] worked out at 149 nM; on human SLC6A19 and TMEM27 [2] it was 166 nM.
The like results for `CC1(C(=O)NCc2cc3cc(Cl)c(OCc4ccon4)cc3[nH]2)CC1` [Compound 46, N-((5-chloro-6-(isoxazol-3-ylmethoxy)-1H-indol-2-yl)methyl)-1-methylcyclopropane-1-carboxamide] were, in that order, 70 nM and 61 nM.
In the same order, the values of `CNC(=O)NCc1cc2cc(Cl)c(OCc3cc(C)no3)cc2[nH]1` [Compound 211, 1-((5-chloro-6-((3-methylisoxazol-5-yl)methoxy)-1H-indol-2-yl)methyl)-3-methylurea] are 87.7 nM and 38.1 nM.
Take `CC1(C(=O)NCc2cc3cc(Cl)c(NCc4ccon4)cc3[nH]2)CC1` [Compound 151, N-((5-chloro-6-((isoxazol-3-ylmethyl)amino)-1H-indol-2-yl)methyl)-1-methylcyclopropane-1-carboxamide]: the IC50 at human SLC6A19 and TMEM27 [1] came out at 182 nM; on human SLC6A19 and TMEM27 [2], 173 nM.
In the same order, the values of `O=C(NCc1cc2cc(Cl)c(NCc3ccon3)cc2[nH]1)N1CCCC1` [Compound 413, N-((5-chloro-6-((isoxazol-3-ylmethyl)amino)-1H-indol-2-yl)methyl)pyrrolidine-1-carboxamide] are 276 nM and 239 nM.
In the same order, the values of `Cc1cc2cc(CNC(=O)N3CCCC3)[nH]c2cc1OCc1ccon1` [Compound 533, N-((6-(isoxazol-3-ylmethoxy)-5-methyl-1H-indol-2-yl)methyl)pyrrolidine-1-carboxamide] are 332 nM and 330 nM.
The like results for `CC1(C(=O)NCc2cc3cc(Cl)c(OCc4ccc(F)cn4)cc3[nH]2)CC1` [Compound 28, N-((5-chloro-6-((5-fluoropyridin-2-yl)methoxy)-1H-indol-2-yl)methyl)-1-methylcyclopropane-1-carboxamide] were, in that order, 170 nM and 79 nM.
Take `Cc1cc(COc2cc3[nH]c(CNC(=O)N4CCC4)cc3cc2F)on1` [Compound 481, N-((5-fluoro-6-((3-methylisoxazol-5-yl)methoxy)-1H-indol-2-yl)methyl)azetidine-1-carboxamide]: the IC50 on human SLC6A19 and TMEM27 [1] came to 318 nM; at human SLC6A19 and TMEM27 [2] it was 297 nM.
In the same order, the values of `CC(=O)NCc1cc2cc(F)c(OCc3ccno3)cc2[nH]1` [Compound 220, N-((5-fluoro-6-(isoxazol-5-ylmethoxy)-1H-indol-2-yl)methyl)acetamide] are 1550 nM and 3480 nM.
Regarding `CC1(C(=O)NCc2cc3cc(F)c(OCc4cscn4)cc3[nH]2)CC1` [Compound 8, N-((5-fluoro-6-(thiazol-4-ylmethoxy)-1H-indol-2-yl)methyl)-1-methylcyclopropane-1-carboxamide], the IC50 on human SLC6A19 and TMEM27 [1] stood at 119 nM; on human SLC6A19 and TMEM27 [2] it was 51 nM.
Regarding `CC1(C(=O)NCc2cc3ccc(OCc4cnsc4)cc3[nH]2)CC1` [Compound 68, N-((6-(isothiazol-4-ylmethoxy)-1H-indol-2-yl)methyl)-1-methylcyclopropane-1-carboxamide], the IC50 at human SLC6A19 and TMEM27 [1] stood at 119 nM; on human SLC6A19 and TMEM27 [2] it was 117 nM.
The like results for `CC1(C(=O)NCc2cc3ccc(OCCc4ccon4)cc3[nH]2)CC1` [Compound 190, N-((6-(2-(isoxazol-3-yl)ethoxy)-1H-indol-2-yl)methyl)-1-methylcyclopropane-1-carboxamide] were, in that order, 185 nM and 294 nM.
In the same order, the values of `O=C(NCc1cc2ccc(OCc3ccon3)cc2[nH]1)N1CCCCC1` [Compound 123, N-((6-(isoxazol-3-ylmethoxy)-1H-indol-2-yl)methyl)piperidine-1-carboxamide] are 340 nM and 576 nM.
In the same order, the values of `CC1(C(=O)NCc2cc3cc(Cl)c(NCc4cscn4)cc3[nH]2)CC1` [Compound 452, N-((5-chloro-6-((thiazol-4-ylmethyl)amino)-1H-indol-2-yl)methyl)-1-methylcyclopropane-1-carboxamide] are 145 nM and 63.6 nM.

The values are drawn from patent publication US20240199546A1, “INHIBITORS OF SOLUTE CARRIER FAMILY 6A MEMBER 19 (SLC6A19) AND METHODS OF USE THEREOF” (Maze Therapeutics, Inc., priority 2022, published 2024).
